Assay results published in PubChem BioAssay (NCI).
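Each compound was tested at five concentrations against cells in 96-well plates for 48 hours. Here, GI50 denotes the concentration required for 50% inhibition of growth. TGI: concentration producing complete growth inhibition.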

What was measured:
Assay in all cases: NCI anticancer screen, dose series, 48 h
[1] = test system: HOP-62 NSCLC
[2] = test system: HCT-15 colon
[3] = test system: OVCAR-3 ovarian
[4] = test system: HOP-92 NSCLC
[5] = test system: ACHN renal
[6] = test system: HS 578T breast
[7] = test system: BT-549 breast
[8] = test system: MOLT-4 leukemia
[9] = test system: SN12C renal
[10] = test system: HL-60(TB) leukemia
[11] = test system: CAKI-1 renal
[12] = test system: HT29 colon
[13] = test system: KM12 colon
[14] = test system: SF-295 CNS
[15] = test system: HCC-2998 colon
[16] = test system: SF-539 CNS
[17] = test system: RXF 393 renal
[18] = test system: SF-268 CNS
[19] = test system: MDA-MB-468 breast
[20] = test system: SK-OV-3 ovarian
[21] = test system: OVCAR-5 ovarian
[22] = test system: NCI-H460 lung
[23] = test system: NCI-H23 lung
[24] = test system: T-47D breast
[25] = test system: OVCAR-8 ovarian
[26] = test system: EKVX NSCLC
[27] = test system: UACC-257 melanoma
[28] = test system: MCF7 breast
[29] = test system: MALME-3M melanoma
[30] = test system: DU-145 prostate
[31] = test system: SK-MEL-2 melanoma
[32] = test system: MDA-MB-435
[33] = test system: U251 CNS
[34] = test system: SW-620 colon
[35] = test system: HCT-116 colon
[36] = test system: NCI-H522 lung
[37] = test system: UACC-62 melanoma
[38] = test system: TK-10 renal
[39] = test system: K-562 leukemia
[40] = test system: SNB-19 CNS
[41] = test system: SK-MEL-28 melanoma
[42] = test system: CCRF-CEM leukemia
[43] = test system: A549 NSCLC
[44] = test system: COLO 205 colon
[45] = test system: NCI-H226 lung
[46] = test system: LOX IMVI melanoma
[47] = test system: SNB-75 CNS
[48] = test system: NCI/ADR-RES ovarian
[49] = test system: M14 melanoma
[50] = test system: IGROV1 ovarian
[51] = test system: A498 renal
[52] = test system: OVCAR-4 ovarian
[53] = test system: PC-3 prostate
[54] = test system: 786-0 renal
[55] = test system: RPMI-8226 leukemia
[56] = test system: SK-MEL-5 melanoma
[57] = test system: SR leukemia
[58] = test system: MDA-MB-231 breast
[59] = test system: UO-31 renal

COc1cccc(-c2ccc(/C=N/NC(=O)c3[nH]c4ccc(Br)cc4c3-c3ccccc3)o2)c1
GI50 [1]: 3.54 µM | TGI [1]: 15.3 µM | GI50 [2]: 3.34 µM | TGI [2]: 16.9 µM | GI50 [3]: 2.48 µM | TGI [3]: 8.6 µM | GI50 [4]: 12.8 µM | TGI [4]: 46 µM | GI50 [5]: 5.43 µM | TGI [5]: > 100 µM | GI50 [6]: 3.73 µM | TGI [6]: 41.2 µM | GI50 [7]: 2.8 µM | TGI [7]: 7.06 µM | GI50 [8]: 3.34 µM | TGI [8]: 12.3 µM | GI50 [9]: 4.13 µM | TGI [9]: 18.9 µM | GI50 [10]: 2.21 µM | TGI [10]: 5.08 µM | GI50 [11]: 11.4 µM | TGI [11]: > 100 µM | GI50 [12]: 2.36 µM | TGI [12]: 5.47 µM | GI50 [13]: 3.96 µM | TGI [13]: 49.6 µM | GI50 [14]: 3.16 µM | TGI [14]: 14.1 µM | GI50 [15]: 4.16 µM | TGI [15]: 72.9 µM | GI50 [16]: 2.35 µM | TGI [16]: 5.51 µM | GI50 [17]: 2.37 µM | TGI [17]: 5.93 µM | GI50 [18]: 4.94 µM | TGI [18]: 48.3 µM | GI50 [19]: 2.29 µM | TGI [19]: 6.38 µM | GI50 [20]: 3.61 µM | TGI [20]: 36.2 µM | GI50 [21]: 4.31 µM | TGI [21]: 44.9 µM | GI50 [22]: 3.26 µM | TGI [22]: 18 µM | GI50 [23]: 5.23 µM | TGI [23]: 40.3 µM | GI50 [24]: 7.94 µM | TGI [24]: > 100 µM | GI50 [25]: 2.39 µM | TGI [25]: 5.57 µM | GI50 [26]: 6.71 µM | TGI [26]: > 100 µM | GI50 [27]: 6.86 µM | TGI [27]: 69.2 µM | GI50 [28]: 3.5 µM | TGI [28]: > 100 µM | GI50 [29]: 3.72 µM | TGI [29]: 32.6 µM | GI50 [30]: 4.19 µM | TGI [30]: > 100 µM | GI50 [31]: 3.04 µM | TGI [31]: 9.76 µM | GI50 [32]: 2.72 µM | TGI [32]: 8.57 µM | GI50 [33]: 3.44 µM | TGI [33]: 12.7 µM | GI50 [34]: 4.6 µM | TGI [34]: > 100 µM | GI50 [35]: 3.33 µM | TGI [35]: 12.3 µM | GI50 [36]: 2 µM | TGI [36]: 4.72 µM | GI50 [37]: 4.17 µM | TGI [37]: > 100 µM | GI50 [38]: 29.1 µM | TGI [38]: > 100 µM | GI50 [39]: 2.89 µM | TGI [39]: 12.9 µM | GI50 [40]: 3.84 µM | TGI [40]: 20.2 µM | GI50 [41]: 7.18 µM | TGI [41]: 52.9 µM | GI50 [42]: 4.19 µM | TGI [42]: 9.66 µM | GI50 [43]: 3.55 µM | TGI [43]: 17.7 µM | GI50 [44]: 2.48 µM | TGI [44]: 7.74 µM | GI50 [45]: 10.2 µM | TGI [45]: 50.6 µM | GI50 [46]: 3.84 µM | TGI [46]: 16.6 µM | GI50 [47]: 2.87 µM | TGI [47]: 15.1 µM | GI50 [48]: 2.4 µM | TGI [48]: 6.26 µM | GI50 [49]: 3.49 µM | TGI [49]: > 100 µM | GI50 [50]: 4.6 µM | TGI [50]: > 100 µM | GI50 [51]: 93.2 µM | TGI [51]: > 100 µM | GI50 [52]: 26.2 µM | TGI [52]: > 100 µM | GI50 [53]: 3.96 µM | TGI [53]: 75 µM | GI50 [54]: 2.84 µM | TGI [54]: 8.73 µM | GI50 [55]: 3.05 µM | TGI [55]: 10.9 µM | GI50 [56]: 2.94 µM | TGI [56]: 11.3 µM

O=C(CNc1nc(-c2ccccc2)cs1)Nc1ccc([N+](=O)[O-])cc1Cl
GI50 [1]: 7.02 µM | TGI [1]: 20 µM | GI50 [2]: 3.34 µM | TGI [2]: 12.8 µM | GI50 [3]: 3.62 µM | TGI [3]: 14.1 µM | GI50 [4]: 4.28 µM | TGI [4]: 16.7 µM | GI50 [5]: 5.51 µM | TGI [5]: 18.2 µM | GI50 [57]: 4.67 µM | TGI [57]: 17.4 µM | GI50 [6]: 3.74 µM | TGI [6]: 15.1 µM | GI50 [7]: 2.29 µM | TGI [7]: 7.66 µM | GI50 [8]: 3.17 µM | TGI [8]: 11.6 µM | GI50 [9]: 3.72 µM | TGI [9]: 13.9 µM | GI50 [10]: 2.8 µM | TGI [10]: 11 µM | GI50 [11]: 3.34 µM | TGI [11]: 14.5 µM | GI50 [12]: 7.63 µM | TGI [12]: 20.4 µM | GI50 [13]: 4.17 µM | TGI [13]: 14.9 µM | GI50 [14]: 4.47 µM | TGI [14]: 16.6 µM | GI50 [15]: 6.94 µM | TGI [15]: 19.7 µM | GI50 [16]: 5.36 µM | TGI [16]: 17.6 µM | GI50 [17]: 4.38 µM | TGI [17]: 15 µM | GI50 [18]: 3.98 µM | TGI [18]: 16.2 µM | GI50 [19]: 1.96 µM | TGI [19]: 4.88 µM | GI50 [20]: 6.18 µM | TGI [20]: 19.2 µM | GI50 [21]: 6.18 µM | TGI [21]: 20.2 µM | GI50 [22]: 9.34 µM | TGI [22]: 21.2 µM | GI50 [23]: 4.6 µM | TGI [23]: 17 µM | GI50 [24]: 3.37 µM | TGI [24]: 13.5 µM | GI50 [58]: 4.94 µM | TGI [58]: 17.1 µM | GI50 [25]: 5.69 µM | TGI [25]: 18.3 µM | GI50 [26]: 3.44 µM | TGI [26]: 14.3 µM | GI50 [27]: 7.55 µM | TGI [27]: 20.2 µM | GI50 [28]: 3.26 µM | TGI [28]: 13.4 µM | GI50 [29]: 9 µM | TGI [29]: 21 µM | GI50 [30]: 10.6 µM | TGI [30]: 22.5 µM | GI50 [31]: 8.86 µM | TGI [31]: 21 µM | GI50 [32]: 4.88 µM | TGI [32]: 16.9 µM | GI50 [33]: 4.42 µM | TGI [33]: 16.8 µM | GI50 [34]: 4.47 µM | TGI [34]: 16.2 µM | GI50 [35]: 3.36 µM | TGI [35]: 12.6 µM | GI50 [36]: 2.9 µM | TGI [36]: 12 µM | GI50 [59]: 3.37 µM | TGI [59]: 15.5 µM | GI50 [37]: 3.6 µM | TGI [37]: 15.4 µM | GI50 [38]: 8.04 µM | TGI [38]: 20.5 µM | GI50 [39]: 3.42 µM | TGI [39]: 13.9 µM | GI50 [40]: 7.71 µM | TGI [40]: 20.3 µM | GI50 [41]: 12.1 µM | TGI [41]: 24.5 µM | GI50 [42]: 3.05 µM | TGI [42]: 12.2 µM | GI50 [43]: 6.05 µM | TGI [43]: 19 µM | GI50 [44]: 11.5 µM | TGI [44]: 23.7 µM | GI50 [45]: 6.78 µM | TGI [45]: 19.3 µM | GI50 [46]: 2.96 µM | TGI [46]: 11.7 µM | GI50 [47]: 1.73 µM | TGI [47]: 9.94 µM | GI50 [48]: 4.11 µM | TGI [48]: 14.6 µM | GI50 [49]: 3.6 µM | TGI [49]: 13.5 µM | GI50 [50]: 4.29 µM | TGI [50]: 15.5 µM | GI50 [51]: 7.11 µM | TGI [51]: 20.1 µM | GI50 [52]: 6.55 µM | TGI [52]: 19.5 µM | GI50 [53]: 5.17 µM | TGI [53]: 17.9 µM | GI50 [54]: 3.3 µM | TGI [54]: 13.2 µM | GI50 [55]: 2.99 µM | TGI [55]: 13.2 µM | GI50 [56]: 3.66 µM | TGI [56]: 14 µM
